Consider five compounds from PMC12466456, “Isolation, Characterization, Antioxidant and Anticancer Activities of Compounds from Erythrina caffra Stem Bark Extract” (Antioxidants, 2025).

What is called IC50 is the midpoint of a concentration-inhibition curve.

A short description of assay [1]: DPPH radical scavenging assay. The format is biochemical. As to conditions: crude extracts/ascorbic acid 50-250 µg/mL, 30 min, 517 nm. As for the experimental part:
The antioxidant potential of the crude extracts was evaluated by measuring their DPPH radical scavenging activity following the protocol described by Bukhari et al.. […] A control well containing 5% dimethyl sulfoxide (DMSO) and DPPH was run concurrently. The samples were incubated in the dark for 30 min at room temperature. The absorbance was read against a DMSO blank at a wavelength of 517 nm using a microplate reader.
In general terms: DPPH is a stable violet radical that fades when it is reduced.

A further assay has as its system HEK293 cells. Nature of the assay: MTT cytotoxicity assay, HEK293. In kind it is cell-based. The settings on record: Homo sapiens. As for the experimental part: (§1) Cytotoxicity was evaluated using the MTT (3-(4,5-dimethylthiazol-2-yl)-2,5-diphenyltetrazolium bromide) assay to measure cell viability after treatment with the plant extracts. This assay measures the percentage viability of a cell population by monitoring the ability of the NAD(P)H-dependent oxidoreductase enzyme system in live cells to reduce MTT to formazan, an insoluble purple form of the dye. […] The medium was replaced with fresh medium, and the extracts were added in varying concentrations (50–250 µg/mL). The plates were incubated at 37 °C in 5% CO2 for 48 h. At the end of the incubation period, the spent medium was discarded and replaced with 100 µL fresh medium containing 10 µL (5 mg/mL in PBS) MTT reagent. The cells were then incubated for an additional 4 h. The MTT/medium was subsequently removed, and 100 μL DMSO was added to solubilize the formazan dye product. Absorbance at 570 nm was assessed using a microplate reader (Vacutec, Hamburg, Germany). Cell viability was calculated as in Equation (2).(2) Cell viability (%)=At/Ac×100 where At = absorbance of test or treated cells and Ac = absorbance of control or untreated cells.

In assay [2] the test system is HeLa cells. Briefly: MTT cytotoxicity assay, HeLa. In kind it is cell-based, human. As to conditions: for IC50: Homo sapiens, HeLa. As for the experimental part:
as §1

For assay [3], the system named is MCF-7 cells. Briefly: MTT cytotoxicity assay, MCF-7. In kind it is cell-based, human. As to conditions: for IC50: Homo sapiens. As for the experimental part: as §1
On the technique in general: Formazan colour is commonly taken as a measure of viable cells.

Assay [4] relates to HeLa cells. Nature of the assay: Muse MultiCaspase assay, HeLa. The format is cell-based, human. As to conditions: 100 µg/mL, 48 h, Figure 5a. As for the experimental part:
(§2) The multicaspase assay was performed using the Muse MultiCaspase kit, which can detect the presence of multiple caspases (caspase-1, 3, 4, 5, 6, 7, 8, and 9). The kit utilizes a derivatized VAD peptide that can detect the activity of multiple caspases and a dead cell dye that provides information on membrane integrity or cell death. Cells were seeded into 48-well plates at a density of 1.0 × 10^5 cells/well and allowed to attach over 24 h. Subsequently, 100 µg/mL of the isolated fractions were added, and the cells were incubated for 48 h. The cells were then trypsinized and reconstituted in 1 × caspase buffer. Approximately 5 μL of the Muse™ MultiCaspase working solution was added to 50 μL of cell suspension and incubated at 37 °C for 30 min. Thereafter, 150 μL of 7-AAD working solution was added, mixed thoroughly, and analyzed using the Muse™ cell analyzer (Luminex Corporation, Austin, TX, USA).

The test system of assay [5] is MCF-7 cells. Nature of the assay: Muse MultiCaspase assay, MCF-7. The format is cell-based, human. The settings on record: 100 µg/mL, 48 h, Figure 5b. As for the experimental part: as §2
Assay [6] has as its system MCF-7 cells. Briefly: AO/EB dual staining for apoptosis, MCF-7. The format is cell-based, human. As to conditions: 48 h; 250 µg/mL (method) or 100 µg/mL (Figure 3 legend).
Procedure: A qualitative assessment of apoptosis induction in cancer cells was conducted by the acridine orange-ethidium bromide (AO/EB) dual staining method, as described previously [13, 14]. Confluent cells (4.0 × 10^3 cells/well) were trypsinized and seeded into 48-well plates and incubated for 24 h at 37 °C in 5% CO2. Subsequently, the spent medium was replaced, and cells were incubated for a further 48 h with the extracts or standard drug (5-fluorouracil) at a concentration of 250 µg/mL. The cells were rinsed twice with cold PBS, and 15 µL of the AO/EB dye mixture (0.1 mg/mL: 0.1 mg/mL) was added, and the cells were incubated for 5 min at ambient temperature. The cells were washed with PBS to remove excess dye and then visualized under an Olympus fluorescence microscope (Wirsam Scientific and Precision Equipment Ltd., Johannesburg, South Africa). Images were captured using a CC12 fluorescence camera and Analysis Five Software (Olympus Soft Imaging Solutions, Olympus, Tokyo, Japan) at 200× magnification.
[7] abbreviates: HEK293, isolated compounds/fractions, read-out: IC50 HEK293 (isolated compounds).
[8] abbreviates: isolated compounds/fractions, read-out: IC50 HeLa (isolated compounds).
The mark [9] stands for this setting: MCF7, MTT, isolated compounds/fractions, read-out: IC50 MCF-7 (isolated compounds).
[10] abbreviates: MTT, isolated compounds/fractions.

Each structure is given as a SMILES string. In brackets after ≈: the same amount, converted by molar mass. Like-named read-outs stand apart in the source and are kept apart here.

Take `O=C1O[C@H]([C@@H](O)CO)C(O)=C1O` [Ascorbic acid, ascorbic acid]: the “IC50 DPPH radical scavenging” value in assay [1] is 84.37 µg/mL (≈ 479 µM).
Consider `CCCCCCCCCCCCCCOC(=O)/C=C/c1ccc(OC)c(O)c1` [Tetradecyl isoferulate, tetradecyl isoferulate], for which the IC50 with HEK293 cells (setting [7]) was 141 µg/mL (≈ 360 µM); with HeLa cells [2] (setting [8]), 170 µg/mL (≈ 435 µM); in the assay with MCF-7 cells [3] (setting [9]), 124 µg/mL (≈ 317 µM). In addition, the “IC50 MCF-7 (isolated compounds)” value in the assay on MCF-7 cells [3] (setting [10]) was determined as 123.6174 µg/mL (≈ 317 µM). Besides, in the assay with HeLa cells [4], the “caspase activation in HeLa cells” value is recorded as “pronounced caspase activation potential”. Also, in the assay on MCF-7 cells [5], the “caspase activation in MCF-7 cells” value is reported as “pronounced caspase activation potential”.
Take `CCCCCCCCCCCCCCCCCCCCCCCCCCOC(=O)/C=C/c1ccc(OC)c(O)c1` [n-Hexacosanyl isoferulate]: the IC50 in the assay on HEK293 cells (setting [7]) came to 316 µg/mL (≈ 566 µM); in the assay with HeLa cells [2] (setting [8]) it was 147 µg/mL (≈ 262 µM); in the assay on MCF-7 cells [3] (setting [9]), 58.8 µg/mL (≈ 105 µM). Besides, the “IC50 HeLa (isolated compounds)” value in the assay with HeLa cells [2] (isolated compounds/fractions) stood at 146.63 µg/mL (≈ 262 µM). Moreover, the “IC50 MCF-7 (isolated compounds)” value worked out at 58.84 µg/mL (≈ 105 µM) in the assay on MCF-7 cells [3] (setting [10]) and 58.8 µg/mL (≈ 105 µM) in the assay on MCF-7 cells [3] (MTT, isolated compounds/fractions, listed as n-hexacosanyl isoferulate). Further, the “caspase activation in HeLa cells” value in the assay with HeLa cells [4] is listed as “pronounced caspase activation potential”. In the assay on MCF-7 cells [5], the “caspase activation in MCF-7 cells” value is “pronounced caspase activation potential”.
Turning to `CCCCCCCCCCCCCCCCCCCCCO` [1-Heneicosanol, 1-heneicosanol], the IC50 turned out to be 372 µg/mL (≈ 1190 µM) in the assay on HEK293 cells (setting [7]), 4010 µg/mL (≈ 12800 µM) in the assay on HeLa cells [2] (setting [8]) and 1980 µg/mL (≈ 6330 µM) in the assay on MCF-7 cells [3] (setting [9]).
Regarding `O=c1[nH]cc(F)c(=O)[nH]1` [Compound 5-FU, 5-Fluorouracil, reference compound], the half-maximal inhibitory concentration (IC50) worked out at 54.5 µg/mL (≈ 419 µM) with HEK293 cells (48 h, HEK293 served as normal cells, read-out: IC50 HEK293 (crude extracts)); 510 µg/mL (≈ 3920 µM) in the assay on HeLa cells [2] (48 h, read-out: IC50 HeLa (crude extracts)); 148 µg/mL (≈ 1140 µM) with MCF-7 cells [3] (MCF7, 48 h, MTT, 48 h, read-out: IC50 MCF-7 (crude extracts)). Besides, the “AO/EB fluorescence / apoptosis in MCF-7 cells” value with MCF-7 cells [6] is “red fluorescence”.
